conditions: not given

**Q.** For `COC(=O)C(Cc1ccc(O)cc1)NC(=O)c1ccc(C(=O)NC(Cc2ccc(O)cc2)C(=O)OC)cc1` (stereo not drawn), which melting point is on record?
**A.** 185 °C

**Q.** For `COC(=O)C(NC(=O)c1ccc(C(=O)NC(C(=O)OC)C(C)C)cc1)C(C)C` (stereo not drawn), which melting point is on record?
**A.** 115 °C

**Q.** With `COC(=O)C(CO)NC(=O)c1ccc(C(=O)NC(CO)C(=O)OC)cc1` (stereo not drawn) as the molecule, how does the melting point read?
**A.** 169 °C

**Q.** For `COC(=O)CNC(=S)c1ccc(C(=S)NCC(=O)OC)cc1`, which melting point is on record?
**A.** 86 °C

**Q.** Which melting point does the source give for `COC(=O)C(C)NC(=S)c1ccc(C(=S)NC(C)C(=O)OC)cc1` (stereo not drawn) here?
**A.** 174 °C

**Q.** Which melting point does the source give for `COC(=O)C(Cc1ccc(O)cc1)NC(=S)c1ccc(C(=S)NC(Cc2ccc(O)cc2)C(=O)OC)cc1` (stereo not drawn) here?
**A.** 170 °C

**Q.** Which melting point does the source give for `COC(=O)C(NC(=S)c1ccc(C(=S)NC(C(=O)OC)C(C)C)cc1)C(C)C` (stereo not drawn) here?
**A.** 160 °C

**Q.** With `COC(=O)C(CO)NC(=S)c1ccc(C(=S)NC(CO)C(=O)OC)cc1` (stereo not drawn) as the molecule, how does the melting point read?
**A.** 179 °C

parameters: method as in PMID 16673812; conditions: oral administration; cited from earlier work

**Q.** For `O=C(O)c1ccc(C(=O)O)cc1` [TPA, Terephthalic acid], which LD50 is on record?
**A.** > 5000 mg/kg
